Holding throughout (format): in vivo
One test has as its system Abutilon theophrasti. The test is described as follows: Post-emergence test/greenhouse, % damage after three weeks. The text has this:
(§1) The expected action for a given combination of two herbicides can be calculated as follows (cf. COLBY, S. R.: “Calculating synergistic and antagonistic responses of herbicide combinations”, Weeds 15, pages 20-22, 1967):
(§2) If • X=% damage by herbicide A (active compound of the formula I) at an application rate of p kg/ha and • Y=% damage by herbicide B (active compound of the formula II) at an application rate of q kg/ha and • E=the expected damage of herbicides A+B at an application rate of p+q kg/ha, then
(§3) If the actual damage exceeds the calculated value, the combination has a superadditive effect, that is to say a synergistic effect.
(§4) Test plants are grown under control conditions (temperature and light). Once the plants have reached a height of 5 to 15 cm, the test compound or the combination of test compounds is applied by spraying such that the particular amounts of active compound desired are applied per unit area. The concentration of the spray liquor is chosen so that the particular amounts of active compound desired are applied in 500 litres of water/ha.
(§5) Following the spray application, the plant containers are kept in the greenhouse under constant light and temperature conditions.
(§6) After three weeks, the degree of damage to the plants is rated in % damage in comparison to the development of the untreated control.
(§7) The figures denote: • 0%=no effect (like untreated control) • 100%=total destruction

The test system of the next test is Alopecurus myosuroides. Described as above.
From the text: as §1, §2, §3, §4, §5, §6, §7

The test system of the next test is Avena fatua. The test is described as above.
From the text: as §1, §2, §3, §4, §5, §6, §7

Another test relates to Chenopodium album. The description is as above.
From the text: as §1, §2, §3, §4, §5, §6, §7

A further test concerns Cyperus esculentus. Described as above.
From the text: as §1, §2, §3, §4, §5, §6, §7

For the next test, the system named is Digitaria sanguinalis. The test is described as above.
From the text: as §1, §2, §3, §4, §5, §6, §7

Another test relates to Ipomoea hederacea. The description is as above.
From the text: as §1, §2, §3, §4, §5, §6, §7

A further test concerns Matricaria inodora. The test is described as above.
From the text: as §1, §2, §3, §4, §5, §6, §7

The next test deals with Setaria viridis. The test is described as above. The settings on record: for Setria viridis observed: post-emergence.
From the text: as §1, §2, §3, §4, §5, §6, §7

In a further test the test system is Viola arvensis. The description is as above.
From the text: as §1, §2, §3, §4, §5, §6, §7

For another test, the system named is Xanthium strumarium. The test is described as above.
From the text: as §1, §2, §3, §4, §5, §6, §7

The subject of the next test is Bromus secalinus. The test is described as above. As to the method:
as §1, §3
(§8) Test plants are grown under control conditions (temperature and light).
as §5, §6

Another test concerns Cassia tora. Described as above. As for the experimental part:
as §1, §3, §8, §5, §6

Another test has as its system Veronica persicaria. The test is described as above. As for the experimental part:
as §1, §3, §8, §5, §6

In another test the test system is test plants. The test is described as follows: Post-emergence test/greenhouse, % damage after three weeks (further test plants, Tables A-1-30 to A-1-104).
From the text: as §1, §2, §3, §4, §5, §6, §7

Another test deals with Polygonum convolvolus. The experiment in a line: Post-emergence test/greenhouse, % damage after three weeks.
Another test deals with Eriochloa villosa. The description is as above.
A further test concerns Galium aparine. The description is as above.
Another test concerns Lolium perenne. The description is as above.
The mark [1] stands for this setting: application rate 125 g of ai/ha.

Several values for one entry are separate records, joined by “and”; a condition that tells them apart may be missing. Equal values may be shown once. Read-outs that look alike come from different tables or passages of the source.

On to `COC(=O)c1csc(C)c1S(=O)(=O)NC(=O)n1nc(OC)n(C)c1=O` [I-2], for which the results for the Abutilon theophrasti observed with Abutilon theophrasti (2 g of ai/ha) and with Abutilon theophrasti (4 g of ai/ha) were 60% and 70%, respectively. The “Activity against Abutilon theophrasti (%)” value in the test on Abutilon theophrasti (8 g of a.i./ha) is reported as 70%. For the same compound, the Alopecurus myosuroides observed in the test on Alopecurus myosuroides (2 g of ai/ha) is 70% and 80%; in the test on Alopecurus myosuroides (4 g of ai/ha), 70% and 80%; with Alopecurus myosuroides (8 g of ai/ha) it was 90% and 80%; in the test with Alopecurus myosuroides (15 g of ai/ha), 90% and 80%. The Avena fatua observed was 70% and 50% and 80% in the test with Avena fatua (2 g of ai/ha); 80% and 70% and 90% in the test on Avena fatua (4 g of ai/ha); 70% and 90% in the test with Avena fatua (8 g of ai/ha); 70% in the test with Avena fatua (15 g of ai/ha). In addition, the Chenopodium album observed is listed as 70% with Chenopodium album (4 g of ai/ha), 85% in the test with Chenopodium album (8 g of ai/ha) and 70% in the test on Chenopodium album (application rate 2 g of ai/ha). Further, in the test on Chenopodium album (8 g of a.i./ha), the “Activity against Chenopodium album (%)” value was 70%. Further, the Cyperus esculentus observed was 80% and 70% in the test with Cyperus esculentus (8 g of ai/ha); 70% with Cyperus esculentus (15 g of ai/ha). Moreover, the Digitaria sanguinalis observed with Digitaria sanguinalis (4 g of ai/ha) was 60%; in the test on Digitaria sanguinalis (8 g of ai/ha), 80% and 90%. The Ipomoea hederacea observed in the test on Ipomoea hederacea (2 g of ai/ha), in the test on Ipomoea hederacea (4 g of ai/ha) and with Ipomoea hederacea (8 g of ai/ha) was 80% throughout. Moreover, the Matricaria inodora observed in the test with Matricaria inodora (2 g of ai/ha) is 50% and 80%; in the test on Matricaria inodora (4 g of ai/ha), 70%; in the test with Matricaria inodora (15 g of ai/ha), 95%. The Setaria viridis observed in the test with Setaria viridis (2 g of ai/ha) was 90%; in the test on Setaria viridis (4 g of ai/ha), 80% and 90%; with Setaria viridis (8 g of ai/ha), 90% and 95%. The Setria viridis observed in the test on Setaria viridis (application rate 2 g of ai/ha) and with Setaria viridis (application rate 4 g of ai/ha) was 90% in each case. In addition, the Viola arvensis observed in the test on Viola arvensis (4 g of ai/ha) turned out to be 40%; in the test on Viola arvensis (8 g of ai/ha), 50%. Also, the Xanthium strumarium observed in the test on Xanthium strumarium (4 g of ai/ha) worked out at 90%; in the test on Xanthium strumarium (8 g of ai/ha), 70%. Further, the pest or weed control at 2 g/ha in the test with Bromus secalinus (Bromus secalinus, post-emergence, 504 h, 2 g of ai/ha, read-out: Bromus secalinus observed) worked out at 70%. Also, the pest or weed control at 4 g/ha with Bromus secalinus (Bromus secalinus, post-emergence, 504 h, 4 g of ai/ha, read-out: Bromus secalinus observed) was determined as 70%. The pest or weed control at 8 g/ha in the test with Bromus secalinus (Bromus secalinus, post-emergence, 504 h, 8 g of ai/ha, read-out: Bromus secalinus observed) turned out to be 80%; in the test with Bromus secalinus (Bromus secalinus, post-emergence, 504 h, application rate 8 g of ai/ha, read-out: Bromus secalinus observed) it was 80%. Also, the pest or weed control at 15 g/ha in the test with Bromus secalinus (Bromus secalinus, post-emergence, 504 h, 15 g of ai/ha, read-out: Bromus secalinus observed) was found to be 70%. Moreover, the Cassia tora observed came to 20% with Cassia tora (2 g of ai/ha), 0% with Cassia tora (4 g of ai/ha) and 0% in the test with Cassia tora (8 g of ai/ha). Besides, the Veronica persicaria observed in the test on Veronica persicaria (2 g of ai/ha) was 0%; with Veronica persicaria (15 g of ai/ha), 60% and 40%. Moreover, the Polygonum convolvolus observed in the test on test plants (application rate 2 g of ai/ha) was 70%; with test plants (application rate 4 g of ai/ha), 80%; in the test with test plants (application rate 8 g of ai/ha), 90%; with Polygonum convolvolus (2 g of ai/ha), 70%; in the test on Polygonum convolvolus (4 g of ai/ha), 70% and 80%. Moreover, the Eriochloa villosa observed in the test with Eriochloa villosa (4 g of ai/ha) is 40% and 30%; with Eriochloa villosa (8 g of ai/ha) it was 70% and 60% and 90%. The Galium aparine observed in the test with Galium aparine (4 g of ai/ha) came out at 80%. Further, the Lolium perenne observed in the test with Lolium perenne (2 g of ai/ha) is 70% and 80%; in the test with Lolium perenne (4 g of ai/ha), 70%; with Lolium perenne (8 g of ai/ha), 90%.
As for `CCOC(=O)[C@@H](C)Oc1ccc(Oc2nc3ccc(Cl)cc3o2)cc1` [fenoxaprop-(P)-ethyl, reference compound], the Ipomoea hederacea observed in the test with Ipomoea hederacea (30 g of ai/ha) was found to be 0%. Moreover, the Bromus secalinus observed in the test on Bromus secalinus (8 g of ai/ha), with Bromus secalinus (15 g of ai/ha) and in the test on Bromus secalinus (30 g of ai/ha) was 0% in each case. Further, the Veronica persicaria observed in the test with Veronica persicaria (8 g of ai/ha), with Veronica persicaria (15 g of ai/ha) and in the test on Veronica persicaria (30 g of ai/ha) was 0% each time.
Turning to `COc1nn(C(=O)NS(=O)(=O)c2ccccc2OC(F)(F)F)c(=O)n1C.[Na]` [flucarbazone-sodium, 4,5-dihydro-3-methoxy-4-methyl-5-oxo-N-[(2-trifluoromethoxyphenyl)-sulphonyl]-1-H-1,2,4-triazole-1-carboxamide sodium salt, reference compound], the Viola arvensis observed in the test with Viola arvensis (15 g of ai/ha) is recorded as 30%. The Bromus secalinus observed in the test on Bromus secalinus (60 g of ai/ha) is recorded as 70%. The Veronica persicaria observed amounted to 20% with Veronica persicaria (30 g of ai/ha) and 60% with Veronica persicaria (60 g of ai/ha).
Take `COc1cc(OC)nc(NC(=O)NS(=O)(=O)c2cc(NC=O)ccc2C(=O)N(C)C)n1` [foramsulfuron]: the Cyperus esculentus observed in the test on Cyperus esculentus (8 g of ai/ha) is recorded as 80%. Also, the Ipomoea hederacea observed in the test on Ipomoea hederacea (15 g of ai/ha) is on record as 80%. The Eriochloa villosa observed in the test on Eriochloa villosa (15 g of ai/ha) turned out to be 60%.
In the case of `Cc1cc(Cl)ccc1O[C@@H](C)C(=O)O` [mecoprop-P], the figures for the Digitaria sanguinalis observed with Digitaria sanguinalis (125 g of ai/ha) and in the test with Digitaria sanguinalis (250 g of ai/ha) were 40% and 70%, respectively. For the same compound, the Matricaria inodora observed with Matricaria inodora (125 g of ai/ha) and in the test on Matricaria inodora (250 g of ai/ha) was 0% throughout. The Galium aparine observed in the test with Galium aparine (125 g of ai/ha) was determined as 20%; in the test with Galium aparine (250 g of ai/ha), 40%.
Regarding flufenacet, the Chenopodium album observed with Chenopodium album (application rate 30 g of ai/ha), with Chenopodium album (application rate 60 g of ai/ha) and with Chenopodium album (setting [1]) was 0% throughout. The Bromus secalinus observed is 0% in the test on Bromus secalinus (application rate 30 g of ai/ha), 20% in the test on Bromus secalinus (application rate 60 g of ai/ha) and 40% with Bromus secalinus (setting [1]). Also, the Polygonum convolvolus observed in the test with test plants (application rate 30 g of ai/ha), in the test with test plants (application rate 60 g of ai/ha) and in the test on test plants (setting [1]) was 0% each time.
